Here are results for four compounds from ChEMBL document CHEMBL1147146, “Cells lacking DNA topoisomerase II beta are resistant to genistein” (J Nat Prod, 2007).

Assay [1] concerns the target DNA topoisomerase 2-alpha (Homo sapiens) (UniProt P11388). The assay can be described thus: Induction of human recombinant topoisomerase 2-DNA complexes in K562 cells assessed as integrated green fluorescence at 175 uM after 6 hrs by TARDIS assay. The format is cell-based.
In assay [2] the target is T1, DNA topoisomerase 1 (Homo sapiens) (UniProt P11387).
T1 sequence (whole entry): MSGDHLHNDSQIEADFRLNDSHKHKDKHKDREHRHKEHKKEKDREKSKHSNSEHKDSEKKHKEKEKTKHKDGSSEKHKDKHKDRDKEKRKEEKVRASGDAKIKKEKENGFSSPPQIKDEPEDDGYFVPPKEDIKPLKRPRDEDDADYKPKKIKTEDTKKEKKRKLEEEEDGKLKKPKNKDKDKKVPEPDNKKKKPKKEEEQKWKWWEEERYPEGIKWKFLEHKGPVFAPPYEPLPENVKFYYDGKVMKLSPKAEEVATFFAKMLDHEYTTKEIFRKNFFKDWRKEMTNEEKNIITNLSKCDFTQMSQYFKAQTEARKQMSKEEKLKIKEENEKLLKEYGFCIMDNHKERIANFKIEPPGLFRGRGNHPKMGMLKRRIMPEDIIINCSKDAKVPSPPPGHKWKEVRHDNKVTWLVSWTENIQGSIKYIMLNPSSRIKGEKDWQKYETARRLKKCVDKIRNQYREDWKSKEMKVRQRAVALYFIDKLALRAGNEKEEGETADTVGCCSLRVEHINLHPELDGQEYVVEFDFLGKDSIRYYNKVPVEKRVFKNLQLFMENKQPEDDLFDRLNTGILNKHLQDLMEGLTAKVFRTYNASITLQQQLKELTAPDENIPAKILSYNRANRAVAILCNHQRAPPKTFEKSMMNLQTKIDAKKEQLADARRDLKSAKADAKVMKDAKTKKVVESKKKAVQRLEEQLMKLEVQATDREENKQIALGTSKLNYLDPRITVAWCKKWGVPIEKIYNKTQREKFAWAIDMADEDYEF
The assay can be described thus: Induction of topoisomerase 1-DNA complexes in K562 cells assessed as integrated green fluorescence at 175 uM after 2 hrs by TARDIS assay. The format is cell-based.

Assay [3] addresses DNA topoisomerase 2-alpha (Homo sapiens) (UniProt P11388). The experiment in a line: Inhibition of human recombinant topoisomerase 2 assessed as reduction of etoposide-induced topo 2-DNA complexes in K562 cells by measuring integrated fluorescence at 175 uM after 24 hrs by TARDIS assay. Type of assay: cell-based.
Assay [4] is described as follows: Growth inhibition of mouse topoisomerase 2-beta -/- cells at 300 uM after 4 hrs by colonogenic assay. The format is functional. Set-up: scale not given: the % may be the effect or the level left.
Assay [5] is filed under the species Mus musculus. The assay can be described thus: Growth inhibition of mouse topoisomerase 2-beta +/+ cells at 100 to 300 uM after 4 hrs by XTT assay. Type of assay: functional.
Assay [6] in a line: Growth inhibition of mouse knock out topoisomerase 2-beta -/- cells after 4 hrs by colonogenic assay. The format is functional.
Assay [7] concerns the target DNA topoisomerase 2-beta (Homo sapiens) (UniProt Q02880). The assay can be described thus: Induction of human recombinant topoisomerase 2beta-DNA complex in K562 cells assessed as integrated fluorescence at 175 uM after 2 hrs by TARDIS assay. Type of assay: cell-based.
For assay [8], the species on record is Mus musculus. The assay can be described thus: Growth inhibition of mouse topoisomerase 2-beta -/- cells at 100 to 300 uM after 4 hrs by XTT assay. The format is functional.
Assay [9] has as its target T1, DNA topoisomerase 1 (Homo sapiens). The assay can be described thus: Inhibition of topoisomerase 1 assessed as reduction of camptothecin-induced topo 1-DNA complexes in K562 cells by measuring integrated fluorescence at 175 uM after 24 hrs by TARDIS assay. The format is cell-based.
The target of assay [10] is DNA topoisomerase 2-alpha (Homo sapiens) (UniProt P11388). The experiment in a line: Induction of human recombinant topoisomerase 2-DNA complexes in K562 cells assessed as integrated green fluorescence at 175 uM after 2 hrs by TARDIS assay. Type of assay: cell-based.
DNA topoisomerase 2-alpha (Homo sapiens), sequence (P11388 whole entry): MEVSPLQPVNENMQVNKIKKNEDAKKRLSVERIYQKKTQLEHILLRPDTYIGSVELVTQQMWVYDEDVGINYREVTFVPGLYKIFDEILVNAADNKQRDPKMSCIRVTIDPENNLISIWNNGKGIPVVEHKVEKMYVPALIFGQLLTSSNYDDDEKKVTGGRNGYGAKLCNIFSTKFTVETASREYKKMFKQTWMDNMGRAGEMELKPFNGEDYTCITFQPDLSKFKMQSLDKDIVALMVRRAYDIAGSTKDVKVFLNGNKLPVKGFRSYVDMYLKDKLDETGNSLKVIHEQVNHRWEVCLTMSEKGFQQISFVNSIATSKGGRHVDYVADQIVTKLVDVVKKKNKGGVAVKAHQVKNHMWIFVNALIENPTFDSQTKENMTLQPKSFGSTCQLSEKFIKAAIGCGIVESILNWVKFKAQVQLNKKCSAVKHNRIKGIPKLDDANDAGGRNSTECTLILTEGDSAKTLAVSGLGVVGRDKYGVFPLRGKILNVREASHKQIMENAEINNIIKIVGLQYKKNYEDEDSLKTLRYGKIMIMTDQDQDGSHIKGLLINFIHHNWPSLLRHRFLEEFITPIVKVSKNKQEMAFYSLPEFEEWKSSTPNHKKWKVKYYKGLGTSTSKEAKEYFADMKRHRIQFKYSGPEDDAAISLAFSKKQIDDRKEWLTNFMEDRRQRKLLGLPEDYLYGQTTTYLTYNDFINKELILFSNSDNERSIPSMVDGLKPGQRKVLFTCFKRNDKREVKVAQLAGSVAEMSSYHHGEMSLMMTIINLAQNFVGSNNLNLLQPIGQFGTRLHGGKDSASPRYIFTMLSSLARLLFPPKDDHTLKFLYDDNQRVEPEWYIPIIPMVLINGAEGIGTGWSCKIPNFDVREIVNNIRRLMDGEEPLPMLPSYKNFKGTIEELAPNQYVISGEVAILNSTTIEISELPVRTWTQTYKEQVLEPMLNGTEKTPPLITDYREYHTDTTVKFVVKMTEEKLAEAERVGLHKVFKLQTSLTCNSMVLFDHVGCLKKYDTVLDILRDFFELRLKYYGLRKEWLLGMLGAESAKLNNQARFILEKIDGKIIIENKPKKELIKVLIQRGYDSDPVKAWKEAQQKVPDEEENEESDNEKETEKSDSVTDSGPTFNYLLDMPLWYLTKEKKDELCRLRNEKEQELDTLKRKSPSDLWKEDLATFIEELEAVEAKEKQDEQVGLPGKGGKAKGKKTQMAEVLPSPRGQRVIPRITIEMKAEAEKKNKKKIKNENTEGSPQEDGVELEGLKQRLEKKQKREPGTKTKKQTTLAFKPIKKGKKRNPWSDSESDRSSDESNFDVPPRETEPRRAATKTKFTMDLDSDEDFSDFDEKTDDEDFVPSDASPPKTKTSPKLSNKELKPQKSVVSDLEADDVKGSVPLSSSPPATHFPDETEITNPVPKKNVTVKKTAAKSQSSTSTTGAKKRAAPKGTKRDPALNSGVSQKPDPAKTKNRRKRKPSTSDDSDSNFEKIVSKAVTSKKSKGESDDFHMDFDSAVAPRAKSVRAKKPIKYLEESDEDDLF
A short description of assay [11]: Survival of mouse wild-type topoisomerase 2beta +/+cells at 100 uM after 4 hrs by colonogenic assay. The format is functional.
In another assay the test system is K562. The experiment in a line: Growth inhibition of K562 cells by XTT assay after 5 days. The format is functional, cell-based. Particulars: Homo sapiens, K562, 120 h. For orientation: Tetrazolium dyes change colour on reduction, which living cells bring about.
The target of assay [12] is DNA topoisomerase 2-alpha (Homo sapiens) (UniProt P11388). The assay can be described thus: Induction of human recombinant topoisomerase 2-DNA complexes in K562 cells assessed as integrated green fluorescence at 175 uM after 24 hrs by TARDIS assay. Type of assay: cell-based.
Assay [13] has as its target T1, DNA topoisomerase 1 (Homo sapiens). The experiment in a line: Induction of topoisomerase 1-DNA complexes in K562 cells assessed as integrated green fluorescence at 175 uM after 0.5 hrs by TARDIS assay. The format is cell-based.
Assay [14] in a line: Survival of mouse topoisomerase 2-beta -/- cells at 100 uM after 4 hrs by colonogenic assay. Type of assay: functional.
Assay [15] is described as follows: Growth inhibition of mouse wild-type topoisomerase 2-beta +/+ cells after 4 hrs by colonogenic assay. Type of assay: functional.
The target in assay [16] is T1, DNA topoisomerase 1 (Homo sapiens). The experiment in a line: Induction of topoisomerase 1-DNA complexes in K562 cells assessed as integrated green fluorescence at 175 uM after 24 hrs by TARDIS assay. The format is cell-based.
For assay [17] the target is unchanged. The assay can be described thus: Inhibition of topoisomerase 1 assessed as reduction of camptothecin-induced topo 1-DNA complexes in K562 cells by measuring integrated fluorescence at 17 uM after 24 hrs by TARDIS assay. Type of assay: cell-based.
The target in assay [18] is DNA topoisomerase 2-alpha (Homo sapiens) (UniProt P11388). The assay can be described thus: Inhibition of human recombinant topoisomerase 2 assessed as reduction of etoposide-induced topo 2-DNA complexes in K562 cells by measuring integrated fluorescence at 17 uM after 24 hrs by TARDIS assay. Type of assay: cell-based.
For assay [19], the target named is T1, DNA topoisomerase 1 (Homo sapiens). The assay can be described thus: Induction of topoisomerase 1-DNA complexes in K562 cells assessed as integrated green fluorescence at 175 uM after 6 hrs by TARDIS assay. The format is cell-based.
Assay [20] deals with DNA topoisomerase 2-alpha (Homo sapiens) (UniProt P11388). The experiment in a line: Induction of human recombinant topoisomerase 2-DNA complexes in K562 cells assessed as integrated green fluorescence at 175 uM after 0.5 hrs by TARDIS assay. The format is cell-based.
The target is the same in assay [21]. Conditions: K562.
Description: Induction of human recombinant topoisomerase 2-DNA complexes in K562 cells assessed as integrated green fluorescence at 10 times their IC50 after 2 hrs by TARDIS assay
Assay [22] has as its target DNA topoisomerase 2-beta (Homo sapiens) (UniProt Q02880). The experiment in a line: Induction of human recombinant topoisomerase 2beta-DNA complex in K562 cells assessed as integrated fluorescence at 10 uM after 2 hrs by TARDIS assay. Type of assay: cell-based.
Assay [23] has as its target DNA topoisomerase 2-alpha (Homo sapiens) (UniProt P11388). Particulars: K562. The source holds these as a separate data set.
Description: Induction of human recombinant topoisomerase 2-DNA complexes in K562 cells assessed as integrated green fluorescence at 10 times their IC50 after 8 hrs by TARDIS assay
For assay [24] the target is unchanged. Conditions: K562, 10 uM.
Description: Induction of human recombinant topoisomerase 2-DNA complexes in K562 cells assessed as integrated green fluorescence at 10 uM after 2 hrs by TARDIS assay
Assay [25] shares this target. Conditions: K562. The source holds these as a separate data set.
Description: Induction of human recombinant topoisomerase 2-DNA complexes in K562 cells assessed as integrated green fluorescence at 10 times their IC50 after 24 hrs by TARDIS assay
In assay [26] the target is T1, DNA topoisomerase 1 (Homo sapiens). The assay can be described thus: Induction of topoisomerase 1-DNA complexes in K562 cells assessed as integrated green fluorescence at 146 uM after 2 hrs by TARDIS assay. Type of assay: cell-based.
Assay [27] concerns the target DNA topoisomerase 2-alpha (Homo sapiens) (UniProt P11388). The experiment in a line: Inhibition of human recombinant topoisomerase 2 assessed as reduction of etoposide-induced topo 2-DNA complexes in K562 cells by measuring integrated fluorescence at 14 uM after 24 hrs by TARDIS assay. The format is cell-based.
Assay [28] shares this target. The experiment in a line: Induction of human recombinant topoisomerase 2-DNA complexes in K562 cells assessed as integrated green fluorescence at 146 uM after 24 hrs by TARDIS assay. Type of assay: cell-based.
Assay [29] has the same target. The assay can be described thus: Induction of human recombinant topoisomerase 2-DNA complexes in K562 cells assessed as integrated green fluorescence at 146 uM after 0.5 hrs by TARDIS assay. The format is cell-based.
Assay [30] concerns the target T1, DNA topoisomerase 1 (Homo sapiens). The experiment in a line: Induction of topoisomerase 1-DNA complexes in K562 cells assessed as integrated green fluorescence at 146 uM after 6 hrs by TARDIS assay. Type of assay: cell-based.
Assay [31] has the same target. The assay can be described thus: Induction of topoisomerase 1-DNA complexes in K562 cells assessed as integrated green fluorescence at 146 uM after 24 hrs by TARDIS assay. Type of assay: cell-based.
The target is the same in assay [32]. The assay can be described thus: Induction of topoisomerase 1-DNA complexes in K562 cells assessed as integrated green fluorescence at 146 uM after 0.5 hrs by TARDIS assay. Type of assay: cell-based.
In assay [33] the target is DNA topoisomerase 2-alpha (Homo sapiens) (UniProt P11388). The assay can be described thus: Induction of human recombinant topoisomerase 2-DNA complexes in K562 cells assessed as integrated green fluorescence at 146 uM after 6 hrs by TARDIS assay. The format is cell-based.
For assay [34] the target is unchanged. The assay can be described thus: Induction of human recombinant topoisomerase 2-DNA complexes in K562 cells assessed as integrated green fluorescence at 146 uM after 2 hrs by TARDIS assay. Type of assay: cell-based.
Assay [35] has as its target T1, DNA topoisomerase 1 (Homo sapiens). The assay can be described thus: Inhibition of topoisomerase 1 assessed as reduction of camptothecin-induced topo 1-DNA complexes in K562 cells by measuring integrated fluorescence at 14 uM after 24 hrs by TARDIS assay. Type of assay: cell-based.
Assay [36] shares this target. The assay can be described thus: Inhibition of topoisomerase 1 assessed as reduction of camptothecin-induced topo 1-DNA complexes in K562 cells by measuring integrated fluorescence at 146 uM after 24 hrs by TARDIS assay. The format is cell-based.
Assay [37] deals with DNA topoisomerase 2-alpha (Homo sapiens) (UniProt P11388). The experiment in a line: Inhibition of human recombinant topoisomerase 2 assessed as reduction of etoposide-induced topo 2-DNA complexes in K562 cells by measuring integrated fluorescence at 146 uM after 24 hrs by TARDIS assay. The format is cell-based.
Assay [38] has as its target T1, DNA topoisomerase 1 (Homo sapiens). Conditions: K562.
Description: Induction of topoisomerase 1-DNA complexes in K562 cells assessed as integrated green fluorescence at 10 times their IC50 after 24 hrs by TARDIS assay
Assay [39] has the same target. Particulars: K562, 10 uM.
Description: Induction of topoisomerase 1-DNA complexes in K562 cells assessed as integrated green fluorescence at 10 uM after 1 hr by TARDIS assay
Assay [40] shares this target. Conditions: K562. This is another data set of the same source.
Description: Induction of topoisomerase 1-DNA complexes in K562 cells assessed as integrated green fluorescence at 10 times their IC50 after 2 hrs by TARDIS assay
Assay [41] has the same target. Conditions: K562. The source holds these as a separate data set.
Description: Induction of topoisomerase 1-DNA complexes in K562 cells assessed as integrated green fluorescence at 10 times their IC50 after 8 hrs by TARDIS assay

Calls of active or inactive are those of the source. The calls are words filed in the database; no cut-off is given here.

What is called IC50 is the point on the concentration scale where inhibition reaches its midpoint.

DNA topoisomerase 2-beta (Homo sapiens), sequence (Q02880 whole entry): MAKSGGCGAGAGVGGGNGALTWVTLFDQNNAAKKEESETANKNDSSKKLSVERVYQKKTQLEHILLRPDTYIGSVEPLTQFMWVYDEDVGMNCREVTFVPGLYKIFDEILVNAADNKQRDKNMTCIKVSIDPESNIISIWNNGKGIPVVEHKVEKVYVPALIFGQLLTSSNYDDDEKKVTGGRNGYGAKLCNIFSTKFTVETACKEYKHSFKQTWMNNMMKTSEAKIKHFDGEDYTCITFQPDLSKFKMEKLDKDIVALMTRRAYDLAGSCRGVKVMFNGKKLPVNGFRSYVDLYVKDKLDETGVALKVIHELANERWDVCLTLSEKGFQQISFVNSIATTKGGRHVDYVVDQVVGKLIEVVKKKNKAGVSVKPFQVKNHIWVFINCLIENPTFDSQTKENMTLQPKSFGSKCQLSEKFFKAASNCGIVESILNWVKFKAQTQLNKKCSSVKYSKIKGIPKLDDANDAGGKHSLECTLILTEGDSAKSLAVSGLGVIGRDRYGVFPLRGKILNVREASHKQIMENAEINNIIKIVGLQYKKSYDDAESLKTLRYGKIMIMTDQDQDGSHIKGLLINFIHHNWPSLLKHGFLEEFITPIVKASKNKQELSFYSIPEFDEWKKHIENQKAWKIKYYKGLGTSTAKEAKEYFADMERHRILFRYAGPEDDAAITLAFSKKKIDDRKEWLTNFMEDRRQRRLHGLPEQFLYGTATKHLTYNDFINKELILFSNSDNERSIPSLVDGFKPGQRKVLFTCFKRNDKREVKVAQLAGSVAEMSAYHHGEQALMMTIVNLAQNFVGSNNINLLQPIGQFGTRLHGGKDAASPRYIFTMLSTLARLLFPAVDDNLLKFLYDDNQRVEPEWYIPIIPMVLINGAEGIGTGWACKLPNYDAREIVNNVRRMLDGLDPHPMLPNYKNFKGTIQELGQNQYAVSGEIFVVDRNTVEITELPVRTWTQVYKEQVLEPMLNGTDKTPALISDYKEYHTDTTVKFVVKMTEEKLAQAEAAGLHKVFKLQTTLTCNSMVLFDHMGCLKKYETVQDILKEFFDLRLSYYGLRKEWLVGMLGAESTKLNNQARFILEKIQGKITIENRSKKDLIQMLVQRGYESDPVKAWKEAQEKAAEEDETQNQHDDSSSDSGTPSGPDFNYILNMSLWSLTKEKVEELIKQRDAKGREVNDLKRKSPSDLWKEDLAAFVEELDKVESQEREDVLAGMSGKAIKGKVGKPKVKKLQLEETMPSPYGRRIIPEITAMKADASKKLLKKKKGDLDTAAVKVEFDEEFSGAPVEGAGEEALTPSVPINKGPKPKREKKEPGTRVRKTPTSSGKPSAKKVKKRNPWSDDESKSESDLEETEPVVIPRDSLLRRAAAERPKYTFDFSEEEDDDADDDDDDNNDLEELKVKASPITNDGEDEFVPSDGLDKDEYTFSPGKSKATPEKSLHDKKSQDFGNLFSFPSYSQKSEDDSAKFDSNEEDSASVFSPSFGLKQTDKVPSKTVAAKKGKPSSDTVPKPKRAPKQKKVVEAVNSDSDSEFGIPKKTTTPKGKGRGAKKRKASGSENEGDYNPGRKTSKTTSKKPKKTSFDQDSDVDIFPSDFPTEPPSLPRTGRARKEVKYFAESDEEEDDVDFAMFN

For `O=c1c(-c2ccc(O)cc2)coc2cc(O)cc(O)c12` [GENISTEIN], the Fluorescence intensity was 7.03 in assay [1]; 0.44 in assay [2]; 67% in assay [3]; 12700 in [7]; 148% in [9]; 20.4 in assay [10]. Moreover, the Fluorescence intensity is 12.6 in [12]; 0.96 in [13]; 0.18 in [16]; 112% in [17]; 95% in [18]; 0.44 in assay [19]. In addition, the Fluorescence intensity in [20] was determined as 7.03. For the same compound, the Activity in assay [4] is reported as 50%; in assay [11] it was 0%; in assay [14], 50%. Also, in the assay listed under Mus musculus [5], the outcome was Active. For the same compound, the IC50 in assay [6] is 300 µM; with K562 it was 17.6 µM; in [15], 47 µM. For the same compound, the outcome in the assay listed under Mus musculus [8] was inactive.
For the compound `COc1cc([C@@H]2c3cc4c(cc3[C@@H](O[C@@H]3O[C@@H]5CO[C@@H](C)O[C@H]5[C@H](O)[C@H]3O)[C@H]3COC(=O)[C@H]23)OCO4)cc(OC)c1O`, the Fluorescence intensity in assay [21] came to 13.2; in assay [22] it was 3940; in assay [23], 20.9; in assay [24] it was 49.4; in assay [25] it was 23.4.
Consider `O=c1cc(-c2ccc(O)c(O)c2)oc2cc(O)cc(O)c12` [LUTEOLIN], for which the Activity in assay [26] was 0.28; in assay [34], 4.08. In addition, the Fluorescence intensity amounted to 133% in assay [27]; 5.05 in assay [28]; 3.17 in assay [29]; 0.51 in [30]; 0.19 in assay [31]; 0.49 in [32]. The Fluorescence intensity in assay [33] worked out at 7.39; in [35], 99%; in assay [36], 52%; in assay [37] it was 85%. In the assay on K562, this compound had an IC50 of 14.7 µM.
As to `CC[C@@]1(O)C(=O)OCc2c1cc1n(c2=O)Cc2cc3ccccc3nc2-1`, the Fluorescence intensity in [38] was 1.04; in assay [39] it was 11.4; in assay [40], 2.51; in assay [41], 1.58.
